{
  "source": "patent US8367731B2",
  "about": "“Peritoneal dialysis fluid” (Fresenius Medical Care Deutschland GmbH, priority 2005, dated 2013)",
  "key": {"[1]": {"tested_on": "complement activation (C3a-desarg)", "assay": "in vitro complement activation, C3a-desarg measured by ELISA after Zymosan addition", "format": "biochemical, rat", "method": "The complement activation was determined from the concentration of C3a-desarg measured by ELISA (rat C3adesARG ELISA #CL89160K; Cedarlane Laboratories Ltd., Hornby, Ontario, Canada). The C3a-desarg levels were expressed as concentrations. Venous blood was used and introduced in a lepirudin treated 5 cc syringe (50 μl lepirudin (5 mg/ml)+70 μl PBS in the syringe and needle). 0.4 ml was transferred to a 3 cc tube with 1.5 ml PD fluid with citrate additions of 0, 2, 4, 6, 8, and 10 mM, respectively, (i.e. 0, 12, 24, 36, 48, 60 μl of a citrate solution with the citrate concentration of 250 mM). Thereafter the samples were spun to remove the blood cells. 1 ml of the supernatant was transferred to a new tube, 20 μl Zymosan (20 mg/ml) was added and the tube. Thereafter EDTA was added to a final concentration of 15 mM, the Zymosan was spun down, and samples of the supernatant were used for the ELISA measurement referred to above. […] However, the upper limit of citrate, which could be present in a PD fluid, is limited by the total amount of buffer solution within the PD fluid. The amount of added citrate influence the total amount of buffer in the PD fluid since citrate also give rise to a buffer effect. Thus, the buffer used in the PD fluid has to be decreased equal to the equivalent amount of added citrate. […]"}, "[2]": {"assay": "in vivo ultrafiltration volume, intraperitoneal volume by Texas Red labelled albumin dilution", "details": "10 mM citrate in PD fluid; 2 hours after infusion; FIG. 2", "method": "The lower limit of the citrate concentration is evident from FIG. 1, where a reasonable inhibited complement cascade is provided with a citrate concentration of at least 4 mM. The ultrafiltration volume was determined with the aid of a fluorescence labelled albumin. This was used as volume marker according to a recently developed technique, in which Texas Red® labelled bovine serum albumin (TR-BSA) has been used as a tracer for determinations of plasma volume. The fluorescence characteristics of TR-BSA (Molecular Probes, Eugene, Oreg., USA) solved in fresh and used PD fluid were evaluated, showing a linear relationship between fluorescence (excitation at 570 nm and emission at 615 nm) and concentration in the range of 0-20 μg/ml. By adding 1 mg/ml of unlabeled bovine serum albumin, a small difference in baseline fluorescence between the fresh and the used PD fluid was eliminated. […] In the present tests, 100 μg Texas Red® labelled bovine serum albumin and 1 mg unlabeled BSA was added to 20 ml PD fluid and intraperitoneal volumes were determined from the dilution calculated from fluorescence values of cell-free samples. The intraperitoneal volumes obtained from measurements of Texas Red® albumin after PD fluid exposure increased when citrate was added to the PD fluid, see FIG. 2. The citrate concentration used in the test of FIG. 2 was 10 mM."}},
  "note": "Where a name gives a salt, the structure may show the parent alone.",
  "data": [
    {"smiles": "O=C(O)CC(O)(CC(=O)O)C(=O)O", "note": "[citrate, tri-sodium citrate]", "values": [
      {"measurement": "citrate concentration providing a reasonable inhibited complement cascade", "setting": "[1]; read from FIG. 1, lower limit of citrate in PD fluid", "result": "at least 4 mM"},
      {"measurement": "C3a-desarg concentration (complement activation)", "setting": "[1]; venous blood in PD fluid with citrate additions of 0, 2, 4, 6, 8 and 10 mM, Zymosan, FIG. 1", "result": "decreased with increasing citrate concentration"},
      {"measurement": "intraperitoneal volumes (ultrafiltration) after PD fluid exposure", "setting": "[2]", "result": "increased"}
    ]}
  ]
}
